biological target: T1, Neutrophil elastase (Homo sapiens, UniProt P08246); assay: In vitro inhibitory activity against human neutrophil elastase (HNE) catalyzed hydrolysis of the synthetic substrate MeO-Suc-Ala- Ala-Pro-Val-pN
T1 sequence (P08246 whole entry): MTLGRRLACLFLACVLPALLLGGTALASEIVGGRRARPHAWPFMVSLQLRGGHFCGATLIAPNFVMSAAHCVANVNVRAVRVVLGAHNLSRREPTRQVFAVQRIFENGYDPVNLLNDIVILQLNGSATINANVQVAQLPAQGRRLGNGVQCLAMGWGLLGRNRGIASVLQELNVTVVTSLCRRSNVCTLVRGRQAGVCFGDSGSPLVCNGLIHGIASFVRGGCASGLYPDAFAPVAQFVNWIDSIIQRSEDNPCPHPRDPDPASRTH

Row | SMILES | Ki
1 | CCCCC(=O)C(=O)[C@@H](NC(=O)[C@@H]1CCCN1C(=O)[C@@H](NC(=O)OCc1ccccc1)C(C)C)C(C)C | 1.6 nM
2 | CCOc1cccnc1C(=O)[C@@H](NC(=O)[C@@H]1CCCN1C(=O)[C@@H](NC(=O)OCc1ccccc1)C(C)C)C(C)C | 87000 nM
3 | CC(C)[C@H](NC(=O)[C@@H]1CCCN1C(=O)[C@@H](NC(=O)OCc1ccccc1)C(C)C)C(=O)c1nnnn1C | 410 nM
4 | CC(C)[C@H](NC(=O)[C@@H]1CCCN1C(=O)[C@@H](NC(=O)OCc1ccccc1)C(C)C)C(=O)c1ncoc1-c1ccccc1 | 330 nM
5 | CC(C)[C@H](NC(=O)[C@@H]1CCCN1C(=O)[C@@H](NC(=O)OCc1ccccc1)C(C)C)C(=O)c1nnn(C)n1 | 49 nM
6 | CC(C)[C@H](NC(=O)[C@@H]1CCCN1C(=O)[C@@H](NC(=O)OCc1ccccc1)C(C)C)C(=O)C(N)=O | 1.8 nM

Second part, the compound after the results:

Row | Ki | SMILES
7 | 1.2 nM | CC(C)[C@H](NC(=O)[C@@H]1CCCN1C(=O)[C@@H](NC(=O)OCc1ccccc1)C(C)C)C(=O)C1=N[C@@H](C)CO1
8 | 0.6 nM | COC(=O)C(=O)[C@@H](NC(=O)[C@@H]1CCCN1C(=O)[C@@H](NC(=O)OCc1ccccc1)C(C)C)C(C)C
9 | 0.4 nM | CC(C)[C@H](NC(=O)OCc1ccccc1)C(=O)N1CCC[C@H]1C(=O)N[C@H](C(=O)C(F)(F)C(=O)NCc1ccccc1)C(C)C

biological target: T1, Neutrophil elastase; assay: In vitro inhibitory activity against human neutrophil elastase (HNE) catalyzed hydrolysis of the synthetic substrate MeO-Suc-Ala- Ala-Pro-Val-pN; 'b' means could not be accurately determined due to low solubility

Row | SMILES | Ki
10 | CC(C)[C@H](NC(=O)[C@@H]1CCCN1C(=O)[C@@H](NC(=O)OCc1ccccc1)C(C)C)C(=O)c1cc2ccccc2s1 | Could not be accurately determined due to low solubility

— ChEMBL document CHEMBL1128346, “Peptidyl alpha-ketoheterocyclic inhibitors of human neutrophil elastase. 2. Effect of varying the heterocyclic ring on in vitro potency” (J Med Chem, 1995)
